{"source": "patent US20060052356A1", "about": "“Pharmacological methods to modulate oxygen consumption” (priority 2004, published 2006)", "key": {"Sprague Dawley rats": {"tested_on": "Sprague Dawley rats", "experiment": "Toxicity and mortality in anesthetized rats given protein synthesis inhibitors (Example 3)"}, "protein synthesis": {"tested_on": "protein synthesis", "experiment": "35S-methionine incorporation into tissue protein after i.v. protein synthesis inhibitor in anesthetized rats (Example 3)", "type": "in vivo, Sprague Dawley rats"}}}
{"smiles": "C[C@H]1c2cccc(O)c2C(=O)C2=C(O)[C@]3(O)C(=O)C(C(N)=O)=C(O)[C@@H](N(C)C)[C@@H]3[C@@H](O)[C@@H]21", "note": "[Doxycycline]", "values": [{"measurement": "mortality", "setting": "Sprague Dawley rats; at doses <1/3 of LD50", "result": "~66", "unit": "%"}]}
{"smiles": "O=c1c(-c2ccc(O)cc2)coc2cc(O)cc(O)c12", "note": "[Genistein]", "values": [{"measurement": "inhibition of protein synthesis (in words)", "setting": "protein synthesis; single agents, intravenous", "result": "poor inhibitor"}, {"measurement": "toxicity", "setting": "Sprague Dawley rats; rat, in vivo", "result": "toxicity at low doses"}]}
{"smiles": "COc1ccc(C[C@H]2NC[C@H](O)[C@H]2OC(C)=O)cc1", "note": "[anisomycin]", "values": [{"measurement": "inhibition of protein synthesis (in words)", "setting": "protein synthesis; rat, in vivo, iv", "result": "substantial inhibition"}]}
{"smiles": "COc1ccc(C[C@H](N)C(=O)N[C@H]2[C@@H](O)[C@H](n3cnc4c(N(C)C)ncnc43)O[C@@H]2CO)cc1", "note": "[puromycin]", "values": [{"measurement": "inhibition of protein synthesis (in words)", "setting": "protein synthesis; single agents, intravenous", "result": "substantial inhibition"}]}
